Earlier results in patent US20100284933A1, “Biomarkers of Multiple Sclerosis” (Biogen Idec MA Inc., priority 2006, published 2010).

Columns and labels:
PBRs = PBRs (Homo sapiens, UniProt P30536); conditions: background statement
CBRs = conditions: background statement

PBRs, sequence (P30536 whole entry): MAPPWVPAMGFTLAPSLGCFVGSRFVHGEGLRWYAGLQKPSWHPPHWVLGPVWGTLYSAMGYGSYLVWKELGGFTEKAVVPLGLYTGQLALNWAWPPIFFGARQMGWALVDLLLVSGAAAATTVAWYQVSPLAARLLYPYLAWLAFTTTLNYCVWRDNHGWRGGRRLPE

| Structure (SMILES) | affinity for PBRs (PBRs) | affinity for CBRs (CBRs) |
| --- | --- | --- |
| CN1C(=O)CN=C(c2ccc(Cl)cc2)c2cc(Cl)ccc21 [Ro 5-4864, 4′-chlorodiazepam] | high affinity | negligible affinity |
| CCC(C)N(C)C(=O)c1cc2ccccc2c(-c2ccccc2Cl)n1 (stereo not shown) [PK 11195] | high affinity | negligible affinity |
